# Where “and” joins values, the source holds several entries; their conditions need not be identical. Equal entries are not always repeated. Toxic doses and inconclusive results are not listed. Peptide text beside a SMILES is read from it. * marks the point of attachment. OtBu = CC(C)(C)O*
# System: P388 leukemia ip, CD2F1 mice, survival T/C
# Test: NCI In Vivo Anticancer Drug Screen. Data for tumor model P388 Leukemia (intraperitoneal) in CD2F1 (CDF1) mice
# Settings: endpoint: median survival time, higher = longer survival
# Procedure, shortened: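 Mice carrying the transplanted tumor received test compound or vehicle. Survival was recorded in each group, and the value is the treated-group measurement divided by that of the vehicle-treated control group.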
# [1] = dose: 50.0 mg/kg/injection, schedule: Q01DX005 (ip), vehicle: saline
# [2] = dose: 100.0 mg/kg/injection, schedule: Q01DX005 (ip), vehicle: saline
# [3] = dose: 200.0 mg/kg/injection, schedule: Q01DX005 (ip), vehicle: saline
# [4] = dose: 50.0 mg/kg/injection, schedule: Q01DX009 (ip), vehicle: suspension in saline
# [5] = dose: 100.0 mg/kg/injection, schedule: Q01DX009 (ip), vehicle: suspension in saline
# [6] = dose: 50.0 mg/kg/injection, schedule: Q01DX009 (ip), vehicle: saline with Tween-80
# [7] = dose: 100.0 mg/kg/injection, schedule: Q01DX009 (ip), vehicle: saline with Tween-80
# [8] = dose: 200.0 mg/kg/injection, schedule: Q01DX009 (ip), vehicle: saline with Tween-80
# [9] = dose: 50.0 mg/kg/injection, schedule: Q01DX009 (ip), vehicle: saline
# [10] = dose: 100.0 mg/kg/injection, schedule: Q01DX009 (ip), vehicle: saline
# [11] = dose: 50.0 mg/kg/injection, schedule: Q01DX005 (ip), vehicle: Klucel (hydroxypropylcellulose) (HPC)
# [12] = dose: 100.0 mg/kg/injection, schedule: Q01DX005 (ip), vehicle: Klucel (hydroxypropylcellulose) (HPC)
# [13] = dose: 200.0 mg/kg/injection, schedule: Q01DX005 (ip), vehicle: Klucel (hydroxypropylcellulose) (HPC)
# [14] = dose: 50.0 mg/kg/injection, schedule: Q01DX005 (ip), vehicle: saline with Tween-80
# [15] = dose: 100.0 mg/kg/injection, schedule: Q01DX005 (ip), vehicle: saline with Tween-80
# [16] = dose: 200.0 mg/kg/injection, schedule: Q01DX005 (ip), vehicle: saline with Tween-80
# [17] = dose: 60.0 mg/kg/injection, schedule: Q01DX005 (ip), vehicle: saline with Tween-80
# [18] = dose: 100.0 mg/kg/injection, schedule: Q04DX003 (ip), vehicle: saline with Tween-80
# [19] = dose: 200.0 mg/kg/injection, schedule: Q04DX003 (ip), vehicle: saline with Tween-80
# [20] = dose: 400.0 mg/kg/injection, schedule: Q04DX003 (ip), vehicle: saline with Tween-80
# [21] = dose: 120.0 mg/kg/injection, schedule: Q01DX005 (ip), vehicle: saline with Tween-80
# [22] = dose: 240.0 mg/kg/injection, schedule: Q01DX005 (ip), vehicle: saline with Tween-80
structure (smiles),measurement,setting,value
COc1cc([C@@H]2c3cc4c(cc3[C@H](OC(=O)CCCC(=O)O)[C@H]3COC(=O)[C@H]23)OCO4)cc(OC)c1OC,T/C,"dose: 3.12 mg/kg/injection, schedule: Q01DX005 (ip), vehicle: saline",100 % of control
same,T/C,"dose: 6.25 mg/kg/injection, schedule: Q01DX005 (ip), vehicle: saline",104 % of control
same,T/C,"dose: 12.5 mg/kg/injection, schedule: Q01DX005 (ip), vehicle: saline",110 % of control and 122 % of control
OCC1CCC2CCCCC2N1 (stereo unspecified),T/C,[1],104 % of control
same,T/C,[2],102 % of control
same,T/C,[3],101 % of control
CC(=O)CS(=O)(=O)c1ccc(NC(C)=O)cc1,T/C,[4],105 % of control
same,T/C,[5],94 % of control
same,T/C,"dose: 200.0 mg/kg/injection, schedule: Q01DX009 (ip), vehicle: suspension in saline",101 % of control
CC(=O)OCC1OC(n2cc(F)c(=O)[nH]c2=O)CC1OC(C)=O (stereo unspecified),T/C,[6],100 % of control
same,T/C,[7],118 % of control
same,T/C,[8],86 % of control
NOCc1ccccc1,T/C,"dose: 100.0 mg/kg/injection, schedule: Q01DX009 (ip), vehicle: Klucel (hydroxypropylcellulose) (HPC)",93 % of control
same,T/C,"dose: 200.0 mg/kg/injection, schedule: Q01DX009 (ip), vehicle: Klucel (hydroxypropylcellulose) (HPC)",86 % of control
CCc1cccc(CC)c1N1C(=O)C2=C(SCCCS2)C1=O,T/C,[9],98 % of control
same,T/C,[10],102 % of control
same,T/C,"dose: 200.0 mg/kg/injection, schedule: Q01DX009 (ip), vehicle: saline",107 % of control
CC(C)CC(NC(=O)C1CCCN1)C(=O)NC(CC(C)C)C(=O)OC(C)(C)C (stereo not drawn) (H-Pro-Leu-Leu-OtBu; configuration not given here),T/C,[11],102 % of control
same,T/C,[12],99 % of control
same,T/C,[13],96 % of control
COc1ccc(Cc2cc3c(cc2OC(C)=O)OCO3)cc1,T/C,[14],100 % of control
same,T/C,[15],100 % of control
same,T/C,[16],99 % of control
S=CN1CCCCC1,T/C,"dose: 15.0 mg/kg/injection, schedule: Q01DX005 (ip), vehicle: saline with Tween-80",98 % of control
same,T/C,"dose: 30.0 mg/kg/injection, schedule: Q01DX005 (ip), vehicle: saline with Tween-80",106 % of control
same,T/C,[17],106 % of control
CN(C=O)c1ccc(C(=O)NC(CCC(=O)O)C(=O)O)cc1 (stereo unspecified),T/C,"dose: 60.0 mg/kg/injection, schedule: Q01DX005 (ip), vehicle: Klucel (hydroxypropylcellulose) (HPC)",98 % of control
same,T/C,"dose: 120.0 mg/kg/injection, schedule: Q01DX005 (ip), vehicle: Klucel (hydroxypropylcellulose) (HPC)",98 % of control
same,T/C,"dose: 240.0 mg/kg/injection, schedule: Q01DX005 (ip), vehicle: Klucel (hydroxypropylcellulose) (HPC)",89 % of control
O=C1c2ccccc2CC1(Br)C(Br)c1ccccc1 (stereo unspecified),T/C,[7],109 % of control
same,T/C,[18],96 % of control
same,T/C,[8],118 % of control
same,T/C,[19],92 % of control
same,T/C,"dose: 400.0 mg/kg/injection, schedule: Q01DX009 (ip), vehicle: saline with Tween-80",109 % of control
same,T/C,[20],92 % of control
COc1cc(OC)c(OC)cc1/C=N/NC(=O)N/N=C/c1cc(OC)c(OC)cc1OC,T/C,"dose: 12.5 mg/kg/injection, schedule: Q01DX009 (ip), vehicle: distilled water + Tween-80",96 % of control
same,T/C,"dose: 25.0 mg/kg/injection, schedule: Q01DX009 (ip), vehicle: distilled water + Tween-80",96 % of control
same,T/C,"dose: 50.0 mg/kg/injection, schedule: Q01DX009 (ip), vehicle: distilled water + Tween-80",108 % of control
same,T/C,"dose: 100.0 mg/kg/injection, schedule: Q01DX009 (ip), vehicle: distilled water + Tween-80",99 % of control
same,T/C,"dose: 200.0 mg/kg/injection, schedule: Q01DX009 (ip), vehicle: distilled water + Tween-80",94 % of control
same,T/C,"dose: 400.0 mg/kg/injection, schedule: Q01DX009 (ip), vehicle: distilled water + Tween-80",86 % of control
O=C1CSC(c2ccccc2Cl)N1c1nncs1 (stereo unspecified),T/C,[17],103 % of control
same,T/C,[21],98 % of control
same,T/C,[22],104 % of control
N#C/C(OC1OC(CO)C(O)C(O)C1O)=C(\C=C/C(=O)O)CC(=O)O (stereo unspecified),T/C,[1],105 % of control
same,T/C,[2],106 % of control
same,T/C,[3],105 % of control
Fc1ccc(CSC(=S)Nc2cccc(C(F)(F)F)c2)cc1,T/C,[4],97 % of control
same,T/C,[5],90 % of control
C=C1C(=O)OC2/C=C(/C)CC/C=C(\C(=O)O)CC/C=C(\C)CCC12 (stereo unspecified),T/C,[18],113 % of control
same,T/C,[19],110 % of control
CCC(C)P(=O)(N1CC1)N1CC1 (stereo unspecified),T/C,"dose: 6.25 mg/kg/injection, schedule: Q01DX009 (ip), vehicle: saline",109 % of control
same,T/C,"dose: 6.25 mg/kg/injection, schedule: Q04DX003 (ip), vehicle: saline",113 % of control
same,T/C,"dose: 25.0 mg/kg/injection, schedule: Q01DX009 (ip), vehicle: saline",154 % of control
same,T/C,"dose: 25.0 mg/kg/injection, schedule: Q04DX003 (ip), vehicle: saline",190 % of control
C1CCC2CC3CCCCN3COC2CC1 (stereo unspecified),T/C,[1],116 % of control
same,T/C,[2],118 % of control
O=C(CC(=O)N1CCN=C1Nc1c(Cl)cccc1Cl)c1ccc(Cl)cc1,T/C,"dose: 6.25 mg/kg/injection, schedule: Q01DX009 (ip), vehicle: Klucel (hydroxypropylcellulose) (HPC)",109 % of control
same,T/C,"dose: 12.5 mg/kg/injection, schedule: Q01DX009 (ip), vehicle: Klucel (hydroxypropylcellulose) (HPC)",105 % of control
same,T/C,"dose: 25.0 mg/kg/injection, schedule: Q01DX009 (ip), vehicle: Klucel (hydroxypropylcellulose) (HPC)",96 % of control
Cc1cc(=O)oc2cc3oc4c(c3cc12)CCCC4,T/C,[11],97 % of control
same,T/C,[12],92 % of control
same,T/C,[13],88 % of control
O=C1NC(=O)/C(=C/C=C/c2ccccc2)S1,T/C,"dose: 25.0 mg/kg/injection, schedule: Q01DX009 (ip), vehicle: saline with Tween-80",102 % of control and 111 % of control
same,T/C,[6],102 % of control and 116 % of control and 118 % of control
same,T/C,[7],93 % of control
same,T/C,[8],123 % of control
O=[Se](O)O,T/C,"dose: 0.78 mg/kg/injection, schedule: Q01DX005 (ip), vehicle: water",106 % of control and 110 % of control
same,T/C,"dose: 1.56 mg/kg/injection, schedule: Q01DX005 (ip), vehicle: water",114 % of control and 119 % of control
same,T/C,"dose: 3.12 mg/kg/injection, schedule: Q01DX005 (ip), vehicle: water",114 % of control
same,T/C,"dose: 6.25 mg/kg/injection, schedule: Q01DX005 (ip), vehicle: water",117 % of control
CS(=O)(=O)C(=S)Sc1ccccc1,T/C,"dose: 25.0 mg/kg/injection, schedule: Q01DX001 (ip), vehicle: saline with Tween-80",97 % of control
same,T/C,"dose: 50.0 mg/kg/injection, schedule: Q01DX001 (ip), vehicle: saline with Tween-80",97 % of control
CC1SC2(C(=O)N(CN3CCCCC3)c3ccccc32)N(c2ccccc2)C1=O (stereo unspecified),T/C,[11],90 % of control
same,T/C,[12],100 % of control
same,T/C,[13],94 % of control
COc1ccccc1NC(=O)C1=C(C)NC(C)=C(C(=O)Nc2ccccc2C)C1c1ccccc1 (stereo unspecified),T/C,[17],100 % of control
same,T/C,[21],104 % of control
same,T/C,[22],89 % of control
CC(=O)OCC1OC(Oc2ccc(C=C(C(C)=O)C(C)=O)cc2)C(OC(C)=O)C(OC(C)=O)C1OC(C)=O (stereo unspecified),T/C,[14],105 % of control
same,T/C,[15],101 % of control
same,T/C,[16],104 % of control
Cc1nc2c(I)cccc2c(=O)n1CC(=O)NNC(N)=S,T/C,[18],101 % of control
same,T/C,[19],97 % of control
same,T/C,[20],100 % of control
Cc1ccc(NC(=O)NNC(=O)CSC2CCc3ccccc32)c(C)c1 (stereo unspecified),T/C,[11],92 % of control
same,T/C,[12],92 % of control
same,T/C,[13],90 % of control
O=c1[nH]c(=O)n(C(c2ccccc2)(c2ccccc2)c2ccccc2)cc1N(CCO)CCO,T/C,[11],100 % of control
same,T/C,[12],97 % of control
same,T/C,[13],98 % of control
CC1=Nc2ccc(C)cc2N=C(C)C1,T/C,[9],86 % of control
same,T/C,[10],91 % of control
CCC1NN1C(C)C (stereo unspecified),T/C,"dose: 50.0 mg/kg/injection, schedule: Q04DX002 (ip), vehicle: saline with Tween-80",100 % of control
same,T/C,"dose: 100.0 mg/kg/injection, schedule: Q04DX002 (ip), vehicle: saline with Tween-80",95 % of control
same,T/C,"dose: 200.0 mg/kg/injection, schedule: Q04DX002 (ip), vehicle: saline with Tween-80",107 % of control

# Source: PubChem BioAssay AID330 (DTP/NCI, 2004)
